Data on twelve compounds can be found in patent US20240424113A1, “CONJUGATES COMPRISING ANTIFUNGALS AND HEAT SHOCK PROTEIN 90 (HSP90) INHIBITORS AND METHODS OF USE THEREOF” (Bright Angel Therapeutics Inc., priority 2021, published 2024).

Series [1] concerns the target Hsp90 Nuclear Binding Domain (NBD) (Candida albicans (strain SC5314 / ATCC MYA-2876) (Yeast), UniProt P46598). The series is described as follows: Surface Plasmon Resonance (SPR) binding, C. albicans Hsp90 NBD. As to conditions: biotinylated Hsp90 NBD on streptavidin chip, 25° C., 1:1 binding model. Here is the method: (§1) Surface Plasmon Resonance (SPR) Experiments. SPR experiments were performed on a Biacore S200 instrument at 25° C. Biotinylated Hsp90 Nuclear Binding Domain (NBD) was diluted to 40 μg/mL and immobilized on a streptavidin chip (Sensor Chip SA, GE Healthcare) at a density of 2000-2500 response units (RU) on the biosensor surface.
(§2) Recombinant Hsp90 NBDs were expressed and purified as previously described (Whitesell et al., Nat Commun 10, 402 (2019)) with the following modification; Hsp90 NBD expression constructs were modified to encode a C-terminal AviTag for site-specific on-column biotinylation with a BirA biotin-ligase kit (Avidity LLC; BirA-500). Stock protein solutions in 50% glycerol were stored at −20° C. until dilution into relevant buffers. Binding experiments were done in HBS-P (0.01 M HEPES, pH 7.4, 0.15 M NaCl, 0.005% v/v surfactant P20, GE Healthcare) with 2% DMSO at flow rate of 40 μL/min. Test compounds (dilution series) were injected with a 60 s association time and 600 s dissociation time. Resulting sensorgrams were analyzed with a fit to a 1:1 binding model, using BIA evaluation software.

For series [2], the system named is HepG2 cells. In words: Mammalian cell toxicity (Cell Titer-Glo). Type of series: cell-based. Here is the method: Mammalian Cell Toxicity. HepG2 cells were seeded overnight at 500 cells/well in 384-well plate, then incubated with compounds (10-point concentration titration) for 48 h. Cell Titer-Glo® reagent ([…]) was added to each well and after 10-minute incubation at room temperature the luminescent signal was measured using an Envision plate reader (Perkin Elmer).
For orientation: ATP-based viability assays read luminescence as a measure of living cells.

Series [3] concerns the target Hsp90 Nuclear Binding Domain (NBD) (Aspergillus fumigatus, UniProt P40292). In words: Surface Plasmon Resonance (SPR) binding, A. fumigatus Hsp90 NBD. As to conditions: biotinylated Hsp90 NBD on streptavidin chip, 25° C., 1:1 binding model; NB undefined. Here is the method:
as §1, §2

In series [4] the test system is CaCl2. In words: Antifungal sensitivity testing (broth microdilution MIC). In kind it is cell-based. Particulars: 96-well broth microdilution. Here is the method:
Antifungal Sensitivity Testing. Minimum inhibitory concentrations (MICs) were determined in flat bottom, 96-well plate format using a modified broth microdilution protocol as previously described (Singh et al., PLoS Pathog. 5, e1000532 (2009); LaFayette et al., PLoS Pathog. 6, 79-80 (2010)). Compounds were formulated in dimethyl sulfoxide (DMSO, Sigma-Aldrich Co.); fluconazole was dissolved in sterile ddH2O. Each compound was tested in duplicate in at least two independent experiments. To test for fungicidal activity, cultures from MIC plates were spotted on YPD agar plates using a spotter (Frogger, V&P Scientific, Inc.). Plates were photographed after 24 h of incubation at 30° C.
(In general: In broth dilution the organism is exposed to a series of concentrations in liquid medium.)

In brackets after ≈: the same amount, converted by molar mass.

For orientation: Kd means the constant that tells how readily two partners part at equilibrium. The low end stands for a tighter complex, the high end for a looser complex. The term MIC50 denotes an inhibitory concentration at the 50% level, which refers to growth in some studies and to a panel of isolates in others. A lower MIC50 goes with greater potency.

Sequence of Hsp90 Nuclear Binding Domain (NBD) (Candida albicans (strain SC5314 / ATCC MYA-2876) (Yeast), UniProt P46598) (P46598 1-218 limits assumed): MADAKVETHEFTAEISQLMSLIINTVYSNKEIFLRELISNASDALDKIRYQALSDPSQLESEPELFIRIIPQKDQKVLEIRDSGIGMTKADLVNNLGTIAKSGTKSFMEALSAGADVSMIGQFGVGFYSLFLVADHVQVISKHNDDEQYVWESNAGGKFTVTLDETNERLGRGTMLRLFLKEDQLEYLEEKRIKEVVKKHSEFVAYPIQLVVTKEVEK
Sequence of Hsp90 Nuclear Binding Domain (NBD) (Aspergillus fumigatus, UniProt P40292) (P40292 whole entry, looked up, the tested form may be a part): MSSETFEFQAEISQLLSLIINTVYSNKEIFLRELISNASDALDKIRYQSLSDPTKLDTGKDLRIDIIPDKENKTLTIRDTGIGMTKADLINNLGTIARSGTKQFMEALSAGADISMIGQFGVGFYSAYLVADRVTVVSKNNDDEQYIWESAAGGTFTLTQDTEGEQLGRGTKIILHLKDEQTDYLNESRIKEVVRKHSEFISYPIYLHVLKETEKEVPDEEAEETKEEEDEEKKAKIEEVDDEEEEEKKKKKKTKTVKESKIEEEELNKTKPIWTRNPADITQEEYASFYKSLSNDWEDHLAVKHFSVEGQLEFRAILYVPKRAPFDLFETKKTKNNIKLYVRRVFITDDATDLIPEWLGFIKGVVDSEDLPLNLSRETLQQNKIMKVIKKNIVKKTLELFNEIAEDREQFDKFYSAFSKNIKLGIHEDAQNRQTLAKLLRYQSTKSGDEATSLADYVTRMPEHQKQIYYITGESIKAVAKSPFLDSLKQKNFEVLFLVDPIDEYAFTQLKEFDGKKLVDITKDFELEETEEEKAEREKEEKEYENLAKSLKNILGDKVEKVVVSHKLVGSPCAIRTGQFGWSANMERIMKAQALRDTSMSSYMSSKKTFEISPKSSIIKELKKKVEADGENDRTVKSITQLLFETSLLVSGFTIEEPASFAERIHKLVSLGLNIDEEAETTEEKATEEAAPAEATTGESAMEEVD

Take `Nc1nc2sc(C(=O)NC3CCN(CC(O)(Cn4cncn4)c4ccc(F)cc4F)CC3)cc2n(-c2ccc3c(c2)N(c2ccccc2)CCO3)c1=O` (stereo not shown) [Compound I-4, 3-amino-N-(1-(2-(2,4-difluorophenyl)-2-hydroxy-3-(1H-1,2,4-triazol-1-yl)propyl)piperidin-4-yl)-2-oxo-1-(4-phenyl-3,4-dihydro-2H-benzo[b][1,4]oxazin-6-yl)-1,2-dihydrothieno[2,3-b]pyrazine-6-carboxamide]: the Kd was determined as 0.028 µM in series [1] and 0.113 µM in series [3]. Further, the “HepG2 MIC50” value in series [2] (Table 5, 48 h incubation) was >10 µM; in series [2] (Table 6, 48 h incubation), >10 µM. For the same compound, the MIC50 in series [4] (Table 4) and in series [4] (Table 6) was 0.75 µM (≈ 0.555 µg/mL) throughout.
Regarding `Nc1nc2sc(CN[C@@H]3CCN(CCC(O)(Cn4cncn4)c4ccc(F)cc4F)C3)cc2n(-c2ccc3c(c2)N(c2ccccc2)CCO3)c1=O` (stereo partly drawn) [Compound I-120, 3-amino-6-((((3R)-1-(3-(2,4-difluorophenyl)-3-hydroxy-4-(1H-1,2,4-triazol-1-yl)butyl)pyrrolidin-3-yl)amino)methyl)-1-(4-phenyl-3,4-dihydro-2H-benzo[b][1,4]oxazin-6-yl)thieno[2,3-b]pyrazin-2(1H)-one], the Kd was 0.179 µM in series [1] and 0.265 µM in series [3]. For the same compound, the MIC50 in series [4] (Table 4) came out at 17.5 µM (≈ 12.7 µg/mL).
`Nc1nc2sc(CN[C@@H]3CCN(CC[C@@](O)(Cn4cncn4)c4ccc(F)cc4F)C3)cc2n(-c2ccc3c(c2)N(c2ccccc2)CCO3)c1=O` [Compound I-123, 3-amino-6-((((R)-1-((S)-3-(2,4-difluorophenyl)-3-hydroxy-4-(1H-1,2,4-triazol-1-yl)butyl)pyrrolidin-3-yl)amino)methyl)-1-(4-phenyl-3,4-dihydro-2H-benzo[b][1,4]oxazin-6-yl)thieno[2,3-b]pyrazin-2(1H)-one]: the figures for the Kd in series [1] and in series [3] were 0.145 µM and 0.238 µM, respectively. Further, in series [4] (Table 4), the MIC50 turned out to be 11.5 µM (≈ 8.35 µg/mL).
In the same order, the values of `Nc1nc2sc(CN[C@H]3[C@@H]4CN(C[C@](O)(Cn5cncn5)c5ccc(F)cc5F)C[C@@H]43)cc2n(-c2ccc3c(c2)N(c2ccccc2)CCO3)c1=O` [Compound I-125, 3-amino-6-((((1R,5S,6R)-3-((S)-2-(2,4-difluorophenyl)-2-hydroxy-3-(1H-1,2,4-triazol-1-yl)propyl)-3-azabicyclo[3.1.0]hexan-6-yl)amino)methyl)-1-(4-phenyl-3,4-dihydro-2H-benzo[b][1,4]oxazin-6-yl)thieno[2,3-b]pyrazin-2(1H)-one] are 0.575 µM, 0.886 µM and 5.75 µM (≈ 4.16 µg/mL).
For `Nc1nc2sc(CN[C@H]3[C@@H]4CN(C[C@@](O)(Cn5cncn5)c5ccc(F)cc5F)C[C@@H]43)cc2n(-c2ccc3c(c2)N(c2ccccc2)CCO3)c1=O` [Compound I-127, 3-amino-6-((((1R,5S,6S)-3-((R)-2-(2,4-difluorophenyl)-2-hydroxy-3-(1H-1,2,4-triazol-1-yl)propyl)-3-azabicyclo[3.1.0]hexan-6-yl)amino)methyl)-1-(4-phenyl-3,4-dihydro-2H-benzo[b][1,4]oxazin-6-yl)thieno[2,3-b]pyrazin-2(1H)-one] the same measures were 0.699 µM, 1.19 µM and 6.25 µM (≈ 4.52 µg/mL).
Consider `Nc1nc2sc(CNC3CCN(C(=O)C[C@@](O)(Cn4cncn4)c4ccc(F)cc4F)CC3)cc2n(-c2ccc3c(c2)N(c2ccccc2)CCO3)c1=O` [Compound I-129, (S)-3-amino-6-(((1-(3-(2,4-difluorophenyl)-3-hydroxy-4-(1H-1,2,4-triazol-1-yl)butanoyl)piperidin-4-yl)amino)methyl)-1-(4-phenyl-3,4-dihydro-2H-benzo[b][1,4]oxazin-6-yl)thieno[2,3-b]pyrazin-2(1H)-one], for which the Kd in series [1] amounted to 0.546 µM; in series [3] it was 0.698 µM. The compound also showed an MIC50 in series [4] (Table 4) of 7 µM (≈ 5.28 µg/mL).
`Nc1nc2sc(CNCC3CCN(C[C@](O)(Cn4cncn4)c4ccc(F)cc4F)CC3)cc2n(-c2ccc3c(c2)N(c2ccccc2)CCO3)c1=O` [Compound I-131, (S)-3-amino-6-((((1-(2-(2,4-difluorophenyl)-2-hydroxy-3-(1H-1,2,4-triazol-1-yl)propyl)piperidin-4-yl)methyl)amino)methyl)-1-(4-phenyl-3,4-dihydro-2H-benzo[b][1,4]oxazin-6-yl)thieno[2,3-b]pyrazin-2(1H)-one]: the “HepG2 MIC50” value came out at 9 µM in series [2] (Table 5, 48 h incubation) and 9 µM in series [2] (Table 6, 48 h incubation). Moreover, the MIC50 in series [4] (Table 4) and in series [4] (Table 6) was 1.25 µM (≈ 0.925 µg/mL) each time.
For the compound `Nc1nc2sc(CNC3CCN(CC(O)(Cn4cncn4)c4ccc(F)cc4F)CC3(F)F)cc2n(-c2ccc3c(c2)N(c2ccccc2)CCO3)c1=O` (stereo not shown) [Compound I-137, 3-amino-6-(((1-(2-(2,4-difluorophenyl)-2-hydroxy-3-(1H-1,2,4-triazol-1-yl)propyl)-3,3-difluoropiperidin-4-yl)amino)methyl)-1-(4-phenyl-3,4-dihydro-2H-benzo[b][1,4]oxazin-6-yl)thieno[2,3-b]pyrazin-2(1H)-one], the results for the Kd in series [1] and in series [3] were 0.0541 µM and 0.127 µM, respectively. Further, in series [4] (Table 4), the MIC50 was 0.78 µM (≈ 0.594 µg/mL).
Consider `Nc1nc2sc(CNC(=O)C3CCN(CC(O)(Cn4cncn4)c4ccc(F)cc4F)CC3)cc2n(-c2ccc3c(c2)N(c2ccccc2)CCO3)c1=O` (stereo not shown) [Compound I-140, N-((3-amino-2-oxo-1-(4-phenyl-3,4-dihydro-2H-benzo[b][1,4]oxazin-6-yl)-1,2-dihydrothieno[2,3-b]pyrazin-6-yl)methyl)-1-(2-(2,4-difluorophenyl)-2-hydroxy-3-(1H-1,2,4-triazol-1-yl)propyl)piperidine-4-carboxamide], for which the Kd in series [1] was found to be 0.746 µM; in series [3] it was 0.434 µM. Besides, in series [4] (Table 4), the MIC50 was 6.3 µM (≈ 4.75 µg/mL).
In the same order, the values of `Nc1nc2sc(CNC3CCN(CC(O)(Cn4cncn4)c4ccc(F)cc4F)C(=O)C3)cc2n(-c2ccc3c(c2)N(c2ccccc2)CCO3)c1=O` (stereo not shown) [Compound I-141, 3-amino-6-(((1-(2-(2,4-difluorophenyl)-2-hydroxy-3-(1H-1,2,4-triazol-1-yl)propyl)-2-oxopiperidin-4-yl)amino)methyl)-1-(4-phenyl-3,4-dihydro-2H-benzo[b][1,4]oxazin-6-yl)thieno[2,3-b]pyrazin-2(1H)-one] are 0.342 µM, 0.62 µM and 6.3 µM (≈ 4.66 µg/mL).
Regarding `Nc1nc2sc(C(=O)NC3CCN(CC(O)(Cn4cncn4)c4ccccn4)CC3)cc2n(-c2ccc3c(c2)N(c2ccccc2)CCO3)c1=O` (stereo not shown) [Compound I-142, 3-amino-N-(1-(2-hydroxy-2-(pyridin-2-yl)-3-(1H-1,2,4-triazol-1-yl)propyl)piperidin-4-yl)-2-oxo-1-(4-phenyl-3,4-dihydro-2H-benzo[b][1,4]oxazin-6-yl)-1,2-dihydrothieno[2,3-b]pyrazine-6-carboxamide], the Kd in series [1] came out at 0.0024 µM; in series [3] it was 0.0341 µM. For the same compound, the MIC50 in series [4] (Table 4) came to 25 µM (≈ 17.6 µg/mL).
On to `Nc1nc2sc(CNC3CCN(CC(O)(Cn4cncn4)c4ccccc4)CC3)cc2n(-c2ccc3c(c2)N(c2ccccc2)CCO3)c1=O` (stereo not shown) [Compound I-145, 3-amino-6-(((1-(2-hydroxy-2-phenyl-3-(1H-1,2,4-triazol-1-yl)propyl)piperidin-4-yl)amino)methyl)-1-(4-phenyl-3,4-dihydro-2H-benzo[b][1,4]oxazin-6-yl)thieno[2,3-b]pyrazin-2(1H)-one], for which the Kd in series [1] was determined as 0.114 µM; in series [3], 0.161 µM. Besides, the MIC50 in series [4] (Table 4) stood at 12.5 µM (≈ 8.62 µg/mL).
